Experimental data reported in US9101632B2, “Kinase inhibitors, prodrug forms thereof and their use in therapy” (AUCKLAND UNISERVICES LIMITED, priority 2009, dated 2015).
Read-outs that look alike come from different tables or passages of the source.

Legend:
A431 cells = assay: Inhibition of cellular proliferation (sulforhodamine B staining); settings: for A431 HCR (Hypoxic Cytotoxicity Ratio): fold change in intra-experimental IC50, 4 hours anoxia relative to oxic only
SKOV3 cells = assay: as above; settings: for SKOV3 HCR (Hypoxic Cytotoxicity Ratio): fold change in intra-experimental IC50, 4 hours anoxia relative to oxic only
H1975 tumours = settings: H1975 xenograft, q3dx4, intraperitoneal; for Drug related deaths: lactate buffer pH 4; for Weight Loss Nadir (%): mean nadir relative to day 0 weight
H1975 cells = assay: Inhibition of cellular proliferation (sulforhodamine B staining); settings: for H1975 HCR (Hypoxic Cytotoxicity Ratio): fold change in intra-experimental IC50, 4 hours anoxia relative to oxic only
erbB1 (EGFR) = erbB1 (EGFR) (Homo sapiens, UniProt P00533); assay: Inhibition of erbB1 autophosphorylation in EGF-stimulated intact A431 cells (Western immunoblotting); assay type: cell-based; settings: 1 hour treatment, phospho-EGFR (Tyr 1068), β-actin corrected
Procedure: (§1) A431 cells were seeded into 6 well plates (with αMEM+5% FCS). The following day, plates were washed once with serum-free medium and grown for 18 hours in serum-free medium (αMEM) before being exposed to a range of inhibitor or prodrug concentrations for 1 hour and then stimulated for 15 minutes with 100 ng/ml epidermal growth factor (EGF receptor ligand). Next cells were washed with ice cold PBS and lysed in modified RIPA buffer on ice (30 min). Lysates were vortexed and clarify by spinning before protein concentrations of samples was determined by BCA assay. […] All antibodies were diluted in 2% BSA TBS-Tween 0.1%. To detect phospho-EGFR (Tyr 1068) the monoclonal antibody (1:500; Cell Signalling #2234) was incubated overnight at 4° C. and binding was detected with goat-anti-Rabbit-IgG-HRP conjugated secondary antibody (1:5000; Santa Cruz #SC2054; 3 h RT). To detect downstream phospho-p44/42 MAPK(Erk 1/2) (Thr202/Tyr 204) the monoclonal antibody (Cell Signalling #4370) was used at a 1:500 dilution. The blot was then treated with Goat anti-rabbit IgG-HRP conjugated secondary antibody (Santa Cruz Biotechnology, Inc. sc-2054) for three hours at a ratio of 1:5000. To normalise for any inaccuracy in gel loading, each blot was probed with anti-β-actin antibody (Abacus ALS #MAB-1501R, 1:2000 dilution). The following day, the blot was treated with Goat anti-mouse IgG-HRP conjugated secondary antibody (Santa Cruz Biotechnology, Inc. sc-2055) for one hour at a 1:5000 ratio. Protein bands were visualized using Amersham ECL Plus Western Blotting Detection Reagent (GE Healthcare RPN2132). Densitometry was determined using Image J software. Values normalized to β-actin were plotted on SigmaPlot 11.0.

p44/42 MAPK (Erk1/2) = assay: Inhibition of p44/42 MAPK (Erk1/2) phosphorylation in EGF-stimulated intact A431 cells (Western immunoblotting); assay type: cell-based, human
Procedure: as §1

A431 tumours = settings: A431 xenograft, q3dx4, intraperitoneal; for Drug related deaths: lactate buffer pH 4; for TGD (Tumour Growth Delay): % increase in time to RTV4 relative to control; for Weight Loss Nadir (%): mean nadir relative to day 0 weight
[1] = pulse radiolysis, determined against methylviologen
[2] = read-out: Cellular Growth Inhibition IC50 A431 Anoxic, initial 4 hours of the 24 hour exposure under anoxic conditions
[3] = read-out: Cellular Growth Inhibition IC50 SKOV3 Anoxic, initial 4 hours of the 24 hour exposure under anoxic conditions
[4] = read-out: Cellular Growth Inhibition IC50 H1975 Anoxic, initial 4 hours of the 24 hour exposure under anoxic conditions
[5] = read-out: Cellular Growth Inhibition IC50 A431 Oxic, 24 hour exposure entirely under oxic conditions, washed, further 4 days
[6] = read-out: Cellular Growth Inhibition IC50 SKOV3 Oxic, 24 hour exposure entirely under oxic conditions, washed, further 4 days
[7] = read-out: Cellular Growth Inhibition IC50 H1975 Oxic, 24 hour exposure entirely under oxic conditions, washed, further 4 days

Chain of erbB1 (EGFR) (P00533 25-1210): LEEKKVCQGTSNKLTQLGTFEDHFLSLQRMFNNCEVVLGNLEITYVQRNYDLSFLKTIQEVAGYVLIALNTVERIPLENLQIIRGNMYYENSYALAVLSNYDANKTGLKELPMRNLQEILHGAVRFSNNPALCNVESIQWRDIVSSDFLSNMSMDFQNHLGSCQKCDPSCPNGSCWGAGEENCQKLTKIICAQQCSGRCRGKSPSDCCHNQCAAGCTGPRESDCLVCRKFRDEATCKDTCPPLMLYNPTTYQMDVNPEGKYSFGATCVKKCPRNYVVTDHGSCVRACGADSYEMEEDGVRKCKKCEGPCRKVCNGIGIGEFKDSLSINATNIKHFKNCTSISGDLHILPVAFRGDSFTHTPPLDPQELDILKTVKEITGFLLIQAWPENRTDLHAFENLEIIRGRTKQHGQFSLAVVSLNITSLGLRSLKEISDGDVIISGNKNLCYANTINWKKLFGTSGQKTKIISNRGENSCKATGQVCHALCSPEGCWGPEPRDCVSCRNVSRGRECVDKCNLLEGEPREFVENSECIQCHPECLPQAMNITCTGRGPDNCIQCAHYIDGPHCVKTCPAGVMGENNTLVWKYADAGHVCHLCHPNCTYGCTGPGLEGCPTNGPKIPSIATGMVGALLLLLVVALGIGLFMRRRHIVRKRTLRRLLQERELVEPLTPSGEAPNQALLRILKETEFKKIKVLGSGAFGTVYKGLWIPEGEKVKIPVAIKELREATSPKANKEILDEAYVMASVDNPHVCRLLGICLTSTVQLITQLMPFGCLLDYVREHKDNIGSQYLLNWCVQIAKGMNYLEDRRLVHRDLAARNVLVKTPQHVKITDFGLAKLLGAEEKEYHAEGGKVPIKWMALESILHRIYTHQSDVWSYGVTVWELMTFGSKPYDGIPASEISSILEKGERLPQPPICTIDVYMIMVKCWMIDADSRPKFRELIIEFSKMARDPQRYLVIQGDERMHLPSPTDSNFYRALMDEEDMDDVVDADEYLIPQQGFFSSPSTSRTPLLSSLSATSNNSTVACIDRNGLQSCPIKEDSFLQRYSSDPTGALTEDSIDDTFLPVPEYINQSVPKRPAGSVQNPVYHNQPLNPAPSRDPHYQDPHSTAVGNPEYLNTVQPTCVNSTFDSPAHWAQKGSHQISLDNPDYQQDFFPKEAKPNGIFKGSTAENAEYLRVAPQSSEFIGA

SMILES | IC50 (A431 cells; [2]) [µM] | IC50 (SKOV3 cells; [3]) [µM] | Drug related deaths (H1975 tumours) | Weight Loss Nadir (%) (H1975 tumours) | IC50 (H1975 cells; [4]) [µM] | A431 HCR (Hypoxic Cytotoxicity Ratio) (A431 cells) | IC50 (erbB1 (EGFR)) [µM] | downstream p44/42 MAPK(Erk 1/2) phosphorylation (Thr202/Tyr 204), result in words (p44/42 MAPK (Erk1/2); 1 hour treatment) | IC50 (p44/42 MAPK (Erk1/2); Homo sapiens, A-431, 1 hour treatment, read-out: IC50 p44/42 MAPK(Erk 1/2) phosphorylation (Thr202/Tyr 204)) [µM] | H1975 HCR (Hypoxic Cytotoxicity Ratio) (H1975 cells) | IC50 (A431 cells; [5]) [µM] | SKOV3 HCR (Hypoxic Cytotoxicity Ratio) (SKOV3 cells) | IC50 (SKOV3 cells; [6]) [µM] | IC50 (H1975 cells; [7]) [µM] | Drug related deaths (A431 tumours) | TGD (Tumour Growth Delay) (A431 tumours) [%] | Weight Loss Nadir (%) (A431 tumours) | E(1)/V 1-electron reduction potential [1] [V] | TGD (Tumour Growth Delay) (H1975 tumours; % increase in time to RTV4 relative to control) [%]
CN(C)C/C=C/C(=O)Nc1cc2c(Nc3ccc(OCc4cccc(Cl)c4)c(Cl)c3)ncnc2cn1 [Compound 1, (2E)-N-(4-{3-chloro-4-[(3-chlorobenzyl)oxy]anilino}pyrido[3,4-d]pyrimidin-6-yl)-4-(dimethylamino)-2-butenamide] | 0.221 | 0.69 | 0 | −3.6 ± 3.0 | 0.88 |  |  |  |  |  |  |  |  |  |  |  |  |  | 
CN(C)C/C=C/C(=O)Nc1cc2c(Nc3ccc4c(cnn4Cc4cccc(F)c4)c3)ncnc2cn1 [Compound 2, (2E)-4-(dimethylamino)-N-(4-{[1-(3-fluorobenzyl)-1H-indazol-5-yl]amino}pyrido[3,4-d]pyrimidin-6-yl)-2-butenamide] | 0.09 | 0.9 | 0 | −7.9 ± 0.6 | 1 | 1.0 |  |  |  |  |  |  |  |  |  |  |  |  | 
CN(C)C/C=C/C(=O)Nc1cc2c(Nc3ccc(OCc4ccccn4)c(Cl)c3)ncnc2cn1 [Compound 3, (2E)-N-{4-[3-chloro-4-(2-pyridinylmethoxy)anilino]pyrido[3,4-d]pyrimidin-6-yl}-4-(dimethylamino)-2-butenamide] | 0.14 | 1.13 | 0 | −4.7 ± 0.4 | 0.73 |  | 0.0483 | coordinate loss | 0.179 | 0.8 |  |  |  |  |  |  |  |  | 
CN(C)C/C=C/C(=O)Nc1cc2c(Nc3ccc(Cl)c(Cl)c3)ncnc2cn1 [Compound 4, (2E)-N-[4-(3,4-dichloroanilino)pyrido[3,4-d]pyrimidin-6-yl]-4-(dimethylamino)-2-butenamide] | 0.015 | 0.55 | 0 | −9.7 ± 4.0 | 0.56 | 0.9 |  |  |  |  | 0.009 | 0.9 | 0.36 |  |  |  |  |  | 
CN(C)C/C=C/C(=O)Nc1cc2c(Nc3ccc(Br)c(Br)c3)ncnc2cn1 [Compound 7, (2E)-N-[4-(3,4-dibromoanilino)pyrido[3,4-d]pyrimidin-6-yl]-4-(dimethylamino)-2-butenamide] | 0.008 | 0.6 | 1 | −4.9 ± 2.4 | 0.27 | 0.8 |  |  |  | 1.0 | 0.005 |  | 0.37 | 0.18 |  |  |  |  | 
C#Cc1cc(Nc2ncnc3cnc(NC(=O)/C=C/CN(C)C)cc23)ccc1F [Compound 8, (2E)-4-(dimethylamino)-N-[4-(3-ethynyl-4-fluoroanilino)pyrido[3,4-d]pyrimidin-6-yl]-2-butenamide] | 0.12 | 1.8 | 0 | −3.3 ± 3.0 | 1.4 |  |  |  |  |  |  |  |  |  |  |  |  |  | 
C#Cc1cc(Nc2ncnc3cnc(NC(=O)/C=C/CN(C)C)cc23)ccc1Cl [Compound 9, (2E)-N-[4-(4-chloro-3-ethynylanilino)pyrido[3,4-d]pyrimidin-6-yl]-4-(dimethylamino)-2-butenamide] | 0.016 | 0.96 |  |  | 0.56 |  |  |  |  | 0.5 |  |  |  |  | 0 | >250 | −1.7 ± 1.7 |  | 
Cn1cnc([N+](=O)[O-])c1C[N+](C)(C)C/C=C/C(=O)Nc1cc2c(Nc3ccc(OCc4cccc(Cl)c4)c(Cl)c3)ncnc2cn1 [Compound 12, (2E)-4-[(4-{3-chloro-4-[(3-chlorobenzyl)oxy]anilino}pyrido[3,4-d]pyrimidin-6-yl)amino]-N,N-dimethyl-N-[(1-methyl-4-nitro-1H-imidazol-5-yl)methyl]-4-oxo-2-buten-1-ammonium bromide] | 0.37 | 8.1 | 0 | −7.8 ± 0.6 | 2.4 |  |  |  |  | 14 | 2.9 | 26 | 47 | 36 |  |  |  |  | 
Cc1nc([N+](=O)[O-])c(C[N+](C)(C)C/C=C/C(=O)Nc2cc3c(Nc4ccc5c(cnn5Cc5cccc(F)c5)c4)ncnc3cn2)n1C [Compound 14, (2E)-N-[(1,2-dimethyl-4-nitro-1H-imidazol-5-yl)methyl]-4-[(4-{[1-(3-fluorobenzyl)-1H-indazol-5-yl]amino}pyrido[3,4-d]pyrimidin-6-yl)amino]-N,N-dimethyl-4-oxo-2-buten-1-ammonium bromide] | 0.063 | 1.1 |  |  | 1.2 |  |  |  |  | 26 | 5.7 |  | 32 | 20 |  |  |  |  | 
Cn1cnc([N+](=O)[O-])c1C[N+](C)(C)C/C=C/C(=O)Nc1cc2c(Nc3ccc(Br)c(Cl)c3)ncnc2cn1.[Br-] [Compound 18, (2E)-4-{[4-(4-bromo-3-chloroanilino)pyrido[3,4-d]pyrimidin-6-yl]amino}-N,N-dimethyl-N-[(1-methyl-4-nitro-1H-imidazol-5-yl)methyl]-4-oxo-2-buten-1-ammonium bromide] | 0.012 | 0.6 |  |  | 0.2 |  |  |  |  |  | 0.5 | 24 | 13 | 13.3 | 0 | >250 | −4.1 ± 0.4 | −0.428 | 
Cn1cnc([N+](=O)[O-])c1C[N+](C)(C)C/C=C/C(=O)Nc1cc2c(Nc3ccc(Br)c(Br)c3)ncnc2cn1.[Br-] [Compound 19, (2E)-4-{[4-(3,4-dibromoanilino)pyrido[3,4-d]pyrimidin-6-yl]amino}-N,N-dimethyl-N-[(1-methyl-4-nitro-1H-imidazol-5-yl)methyl]-4-oxo-2-buten-1-ammonium bromide] | 0.025 | 0.42 | 1 | −2.7 ± 0.6 | 0.23 |  |  |  |  |  | 0.42 |  | 29 | 15 |  |  |  | −0.425 | 138
C#Cc1cc(Nc2ncnc3cnc(NC(=O)/C=C/C[N+](C)(C)Cc4c([N+](=O)[O-])ncn4C)cc23)ccc1F [Compound 20, (2E)-4-{[4-(3-ethynyl-4-fluoroanilino)pyrido[3,4-d]pyrimidin-6-yl]amino}-N,N-dimethyl-N-[(1-methyl-4-nitro-1H-imidazol-5-yl)methyl]-4-oxo-2-buten-1-ammonium bromide] | 0.13 | 4.4 | 0 | −4.4 ± 2.3 | 3.3 |  |  |  |  |  | 3.9 | 15 | 194 | 118 |  |  |  |  | 
C#Cc1cc(Nc2ncnc3cnc(NC(=O)/C=C/C[N+](C)(C)Cc4c([N+](=O)[O-])ncn4C)cc23)ccc1Cl [Compound 21, (2E)-4-{[4-(4-chloro-3-ethynylanilino)pyrido[3,4-d]pyrimidin-6-yl]amino}-N,N-dimethyl-N-[(1-methyl-4-nitro-1H-imidazol-5-yl)methyl]-4-oxo-2-buten-1-ammonium bromide] | < 0.01 | 1.13 |  |  | 0.6 |  |  |  |  | 18 | 0.85 |  | 47 | 18 | 0 | >250 | −4.3 ± 2.3 |  | 
